Measured values from US10273242B2, “Compound inhibiting activities of BTK and/or JAK3 kinases” (BEIJING HANMI PHARMACEUTICAL CO., LTD., priority 2013, dated 2019).

Legend:
BTK kinase = target: T1, BTK kinase (Homo sapiens, UniProt Q06187); test: BTK kinase activity inhibition assay (ADP-Glo); format: biochemical; conditions: ATP 50 μM
T1 construct: purchased Invitrogen PV3363
Procedure: The BTK kinase (purchased from Invitrogen, No.: PV3363) was diluted with reaction buffer (40 mM Tris-HCl, pH 7.5; 20 mM MgCl2, 0.1 mg/ml BSA; 1 mM DTT; 2 mM MnCl2) to 2 times of the final concentration (which is 1.1 ng/μL) and added with 5 μL/well to a 96-well plate. The compounds of the present invention were serial diluted with deionized water to four times (i.e., 40 μM, 4 μM, 0.4 μM, 80 nM, 16 nM, 3.2 nM, respectively) of the final concentrations (10 μM, 1 μM, 0.1 μM, 20 nM, 4 nM, 0.8 nM, respectively), and added at 2.5 μL/well to the test wells of the 96-well plate. After incubation at 25° C. for 10 minutes, ATP (50 μM) (purchased from Promega, No.: V9102) and 0.2 μg/μL of Poly E4Y1 (purchased from Sigma, No.: P0275-25MG) were added with 2.5 μL/well and incubated at 25° C. for 120 minutes. After the reaction was completed, 10 μL of the ADP-Glo reagent (ADP-Glo™ kinase assay kit, purchased from Promega, No.: V9102) was added to each well, and reacted at 25° C. for 40 minutes. Then 20 μL of the ADP-Glo kinase detection reagent was added to each well and reacted at 25° C. for 30 minutes. The kinase activity was detected by luminescence using the ADP-Glo kinase assay kit according to the manufacture's instruction, and IC50 values of the compounds of the present invention were calculated.

JAK3 kinase = target: T2, JAK3 kinase (Homo sapiens, UniProt P52333); test: JAK3 kinase activity inhibition assay (ADP-Glo); format: biochemical; conditions: ATP 10 μM
T2 construct: purchased SignalChem J03-11G
Procedure: The JAK3 kinase (purchased from SignalChem, No.: J03-11G) was diluted with reaction buffer (40 mM Tris-HCl, pH 7.5; 20 mM MgCl2, 0.1 mg/ml BSA; 1 mM DTT) to 2 times of the final concentration (which is 0.5 ng/μL) and added with 5 μL/well to a 96-well plate. The compounds of the present invention were serial diluted with deionized water to four times (i.e., 40 μM, 4 μM, 0.4 μM, 80 nM, 16 nM, 3.2 nM, respectively) of the final concentrations (10 μM, 1 μM, 0.1 μM, 20 nM, 4 nM, 0.8 nM, respectively), and added with 2.5 μL/well to the test wells of the 96-well plate. After incubation at 25° C. for 10 minutes, 10 μM of ATP (purchased from Promega, No.: V9102) and 0.2 μg/μL of Poly E4Y1 (purchased from Sigma, No.: P0275-25MG) were added at 2.5 μL/well and reacted at 25° C. for 60 minutes. After the reaction was completed, 10 μL of the ADP-Glo reagent (ADP-Glo™ kinase assay kit, purchased from Promega, No.: V9102) was added to each well and reacted at 25° C. for 40 minutes. Then 20 μL of the ADP-Glo kinase detection reagent was added to each well and reacted at 25° C. for 30 minutes. The kinase activity was detected by luminescence using the ADP-Glo kinase assay kit according to the manufacture's instruction, and IC50 values of the compounds of the present invention were calculated.

T2 sequence (P52333 781-1124 limits assumed): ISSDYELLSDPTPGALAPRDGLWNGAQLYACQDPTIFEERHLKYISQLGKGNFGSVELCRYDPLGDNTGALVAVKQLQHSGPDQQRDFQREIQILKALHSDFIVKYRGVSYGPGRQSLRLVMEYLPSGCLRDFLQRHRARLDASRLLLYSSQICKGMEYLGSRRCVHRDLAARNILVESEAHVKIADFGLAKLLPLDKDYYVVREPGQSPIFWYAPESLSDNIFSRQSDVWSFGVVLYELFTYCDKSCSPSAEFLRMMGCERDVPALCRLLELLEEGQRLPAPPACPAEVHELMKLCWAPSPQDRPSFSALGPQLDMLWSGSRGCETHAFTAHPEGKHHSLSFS
T1 sequence (Q06187 whole entry): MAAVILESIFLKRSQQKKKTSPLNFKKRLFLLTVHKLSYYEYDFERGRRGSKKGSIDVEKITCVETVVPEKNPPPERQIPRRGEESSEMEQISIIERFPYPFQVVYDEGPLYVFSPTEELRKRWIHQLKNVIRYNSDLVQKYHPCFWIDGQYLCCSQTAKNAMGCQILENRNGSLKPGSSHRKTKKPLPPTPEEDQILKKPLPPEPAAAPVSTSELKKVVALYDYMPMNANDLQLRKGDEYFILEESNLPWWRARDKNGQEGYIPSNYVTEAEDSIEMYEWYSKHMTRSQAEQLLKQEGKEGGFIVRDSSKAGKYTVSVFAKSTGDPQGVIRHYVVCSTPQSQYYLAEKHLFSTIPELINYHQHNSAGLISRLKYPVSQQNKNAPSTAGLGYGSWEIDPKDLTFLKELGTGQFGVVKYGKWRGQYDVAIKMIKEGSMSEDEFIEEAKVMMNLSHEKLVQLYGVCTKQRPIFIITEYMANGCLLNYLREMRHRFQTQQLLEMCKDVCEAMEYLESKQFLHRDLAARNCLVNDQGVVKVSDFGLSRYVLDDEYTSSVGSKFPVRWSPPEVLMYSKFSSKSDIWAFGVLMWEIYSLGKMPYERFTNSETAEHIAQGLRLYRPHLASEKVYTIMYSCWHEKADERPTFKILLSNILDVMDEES

Row | Compound | IC50 (BTK kinase) [nM] | IC50 (JAK3 kinase) [nM]
1 | C=CC(=O)N[C@H]1CC[C@@H](Nc2nc(Nc3cnn(C)c3)nc3ccsc23)CC1 [Example 1, N-(cis-4-((2-((1-methyl-1H-pyrazol-4-yl)amino)thieno[3,2-d]pyrimidin-4-yl)amino)cyclohexyl)acrylamide] | ≤ 50 | –
2 | C=CC(=O)NC1CCC(Nc2nc(Nc3cnn(C)c3)nc3ccsc23)CC1 (stereo not shown) [Example 2] | ≤ 50 | –
3 | C=CC(=O)N[C@H]1CC[C@@H](Nc2nc(Nc3cn[nH]c3)nc3ccsc23)CC1 [Example 4] | ≤ 50 | –
4 | C=CC(=O)N[C@H]1CC[C@@H](Nc2nc(Nc3cc(C)ns3)nc3ccsc23)CC1 [Example 8] | ≤ 50 | –
5 | C=CC(=O)N[C@H]1CC[C@@H](Nc2nc(Nc3cnn(C4CCC4)c3)nc3ccsc23)CC1 [Example 12] | ≤ 50 | –
6 | C=CC(=O)N[C@H]1CC[C@@H](Nc2nc(Nc3cnn(C4CCCC4)c3)nc3ccsc23)CC1 [Example 13] | ≤ 50 | –
7 | C=CC(=O)N[C@H]1CC[C@@H](Nc2nc(Nc3cnn(CCO)c3)nc3ccsc23)CC1 [Example 14] | ≤ 50 | –
8 | C=CC(=O)N[C@H]1CC[C@@H](Nc2nc(Nc3cnn(CCOC)c3)nc3ccsc23)CC1 [Example 15] | ≤ 50 | –
9 | C=CC(=O)N[C@H]1CC[C@@H](Nc2nc(Nc3cnn(CCF)c3)nc3ccsc23)CC1 [Example 16] | ≤ 50 | –
10 | C=CC(=O)N[C@H]1CC[C@@H](Nc2nc(Nc3cnn(CCN(C)C)c3)nc3ccsc23)CC1 [Example 17] | 50 to 100 | –
11 | C=CC(=O)N[C@H]1CC[C@@H](Nc2nc(Nc3cnn(CCN4CCOCC4)c3)nc3ccsc23)CC1 [Example 18] | ≤ 50 | –
12 | C=CC(=O)N[C@H]1CC[C@@H](Nc2nc(Nc3ccc(OCCN4CCCCC4)c(F)c3)nc3ccsc23)CC1 [Example 30] | 50 to 100 | –
13 | C=CC(=O)N[C@H]1CC[C@@H](Nc2nc(Nc3ccc(OCCN4CCN(C)CC4)c(F)c3)nc3ccsc23)CC1 [Example 31] | ≤ 50 | –
14 | C=CC(=O)N[C@H]1CC[C@@H](Nc2nc(Nc3ccc(N4CCOCC4)cc3)nc3ccsc23)CC1 [Example 33] | 50 to 100 | –
15 | C=CC(=O)N[C@H]1CC[C@@H](Nc2nc(Nc3ccc(N4CCN(C)CC4)cc3)nc3ccsc23)CC1 [Example 34] | ≤ 50 | –
16 | C=CC(=O)N[C@H]1CC[C@@H](Nc2nc(Nc3ccc(N4CCN(C)CC4)c(F)c3)nc3ccsc23)CC1 [Example 35] | ≤ 50 | –
17 | C=CC(=O)N[C@H]1CC[C@@H](Nc2nc(Nc3ccc(N4CCN(C)CC4)c(C)c3)nc3ccsc23)CC1 [Example 36] | 50 to 100 | –
18 | C=CC(=O)N[C@H]1CC[C@@H](Nc2nc(Nc3ccc(NC4CCN(C)CC4)cc3)nc3ccsc23)CC1 [Example 43] | ≤ 50 | –
19 | C=CC(=O)N[C@H]1CC[C@@H](Nc2nc(Nc3ccc(NC4CCN(C)CC4)c(F)c3)nc3ccsc23)CC1 [Example 44] | ≤ 50 | –
20 | C=CC(=O)N[C@H]1CC[C@@H](Nc2nc(Nc3ccc(NC4CCN(C)CC4)c(C)c3)nc3ccsc23)CC1 [Example 45] | 50 to 100 | –
21 | C=CC(=O)N[C@H]1CC[C@@H](Nc2nc(Nc3ccc(NC4CCN(C)CC4)c(Cl)c3)nc3ccsc23)CC1 [Example 46] | ≤ 50 | –
22 | C=CC(=O)N[C@H]1CC[C@@H](Nc2nc(Nc3ccc(NC4CCN(C(C)C)CC4)c(F)c3)nc3ccsc23)CC1 [Example 47] | ≤ 50 | –
23 | C=CC(=O)N[C@H]1CC[C@@H](Nc2nc(Nc3ccc(OC4CCN(C)CC4)c(F)c3)nc3ccsc23)CC1 [Example 49] | ≤ 50 | –
24 | C=CC(=O)N[C@H]1CC[C@@H](Nc2nc(Nc3ccc(C(=O)N4CCN(C)CC4)cc3)nc3ccsc23)CC1 [Example 50] | ≤ 50 | –

Row | Compound | IC50 (BTK kinase) [nM] | IC50 (JAK3 kinase) [nM]
25 | C=CC(=O)N[C@H]1CC[C@@H](Nc2nc(Nc3ccc(C(=O)N4CCN(C)CC4)c(F)c3)nc3ccsc23)CC1 [Example 51] | ≤ 50 | –
26 | C=CC(=O)N[C@H]1CC[C@@H](Nc2nc(Nc3ccc(C(=O)NC4CCN(C)CC4)c(F)c3)nc3ccsc23)CC1 [Example 52] | 50 to 100 | –
27 | C=CC(=O)N[C@H]1CC[C@@H](Nc2nc(Nc3cnn(C)c3)nc3ccoc23)CC1 [Example 57, N-(cis-4-((2-((1-methyl-1H-pyrazol-4-yl)amino)furo[3,2-d]pyrimidin-4-yl)amino)cyclohexyl)acrylamide] | ≤ 50 | –
28 | C#CC(=O)N[C@H]1CC[C@@H](Nc2nc(Nc3cnn(C)c3)nc3ccsc23)CC1 [Example 60, N-(cis-4-((2-((1-methyl-1H-pyrazol-4-yl)amino)thieno[3,2-d]pyrimidin-4-yl)amino)cyclohexyl)propynamide] | ≤ 50 | –
29 | C=CC(=O)N1CC(CNc2nc(Nc3cnn(C)c3)nc3ccsc23)C1 [Example 61, 1-(3-(((2-((1-methyl-1H-pyrazol-4-yl)amino)thieno[3,2-d]pyrimidin-4-yl)amino)methyl)azetidin-1-yl)prop-2-en-1-one] | ≤ 50 | ≤ 10
30 | C=CC(=O)N1CC(CNc2nc(Nc3cn[nH]c3)nc3ccsc23)C1 [Example 62] | ≤ 50 | 10 to 100
31 | C=CC(=O)N1CC(CNc2nc(Nc3cc(C)[nH]n3)nc3ccsc23)C1 [Example 65] | ≤ 50 | 10 to 100
32 | C=CC(=O)N1CC(CNc2nc(Nc3cc(C)no3)nc3ccsc23)C1 [Example 69] | ≤ 50 | 10 to 100
33 | C=CC(=O)N1CC(CNc2nc(Nc3cc(C(C)C)no3)nc3ccsc23)C1 [Example 70] | 50 to 100 | 10 to 100
34 | C=CC(=O)N1CC(CNc2nc(Nc3cc(C)ns3)nc3ccsc23)C1 [Example 71] | ≤ 50 | ≤ 10
35 | C=CC(=O)N1CC(CNc2nc(Nc3cccs3)nc3ccsc23)C1 [Example 72] | ≤ 50 | 10 to 100
36 | C=CC(=O)N1CC(CNc2nc(Nc3cnoc3)nc3ccsc23)C1 [Example 73] | ≤ 50 | 10 to 100
37 | C=CC(=O)N1CC(CNc2nc(Nc3nccs3)nc3ccsc23)C1 [Example 74] | 50 to 100 | 100 to 1000
38 | C=CC(=O)N1CC[C@@H](Nc2nc(Nc3cnn(C)c3)nc3ccsc23)C1 [Example 75] | ≤ 50 | 10 to 100
39 | C=CC(=O)N1CC[C@@H](Nc2nc(Nc3cccs3)nc3ccsc23)C1 [Example 76] | ≤ 50 | 10 to 100
40 | C=CC(=O)N1CC[C@@H](Nc2nc(Nc3cn[nH]c3)nc3ccsc23)C1 [Example 77] | ≤ 50 | 10 to 100
41 | C=CC(=O)N1CC[C@@H](Nc2nc(Nc3cnoc3)nc3ccsc23)C1 [Example 78] | 50 to 100 | 10 to 100
42 | C=CC(=O)N1CC[C@@H](Nc2nc(Nc3cc(C)no3)nc3ccsc23)C1 [Example 79] | 100 to 1000 | 10 to 100
43 | C=CC(=O)N1CCC[C@@H](Nc2nc(Nc3cnn(C)c3)nc3ccsc23)C1 [Example 80] | ≤ 50 | 10 to 100
44 | C=CC(=O)N1CCC[C@@H](Nc2nc(Nc3cn[nH]c3)nc3ccsc23)C1 [Example 81] | ≤ 50 | 10 to 100
45 | C=CC(=O)N1CCC[C@@H](Nc2nc(Nc3cc(C)ns3)nc3ccsc23)C1 [Example 82] | ≤ 50 | ≤ 10
46 | C=CC(=O)N1CCC[C@@H](Nc2nc(Nc3cnoc3)nc3ccsc23)C1 [Example 83] | ≤ 50 | ≤ 10
47 | C=CC(=O)N1CCC[C@@H](Nc2nc(Nc3cccs3)nc3ccsc23)C1 [Example 84] | ≤ 50 | 10 to 100
48 | C=CC(=O)N1CC(CNc2nc(Nc3cnn(C)c3)nn3cccc23)C1 [Example 136] | ≤ 50 | –
